We go through three molecules from patent publication US20160022772A1, “Cytokine Receptors as Targets for Hypertension Therapy and Methods of Use” (Duke University, priority 2014, published 2016).

“Also recorded” adds a separate entry of the source.

For one data set, the system named is NO generation. Description: Blockade of NO generation with L-NAME in Ang II-infused WT and IL-1R KO mice, blood pressure. In kind it is in vivo. The note with it: L-NAME in drinking water from day 7 of Ang II, by day 14. An excerpt: Because IL-1 is secreted by macrophages, macrophage infiltration into the kidneys of the experimental animals was examined. After 4 weeks of hypertension, IL-1R KO kidneys contained more F4/80+ macrophages than WTs (18±1 vs. 14±2 per HPF; p=0.03). […] In turn, the KO group had enhanced renal mRNA expression of the NO-generating enzyme iNOS (1.7±0.3 vs. 1.0±0.2 au; p<0.05) and higher excretion of NO metabolites vs. WTs (152±46 vs. 60±15 nmol/mg Cr; p=0.05). NO inhibits renal sodium (Na) reabsorption, and during the 2″d wk of Ang II infusion when WT and KO BPs separated, only the KOs entered negative Na balance (−16.8±16.8 vs. WT 34.8±7.5 1-Jmol/day, p=0.01). To confirm that preserved NO bioavailability in the Ang 11-infused KOs led to their lower BP vs. WTs, we blocked NO generation in the groups with L-NAME starting on day 7 of Ang II when the WT and KO BPs were 179±3 vs. 165±6 mm Hg (p<0.01). By day 14, BPs converged (186±5 vs. 185±8; p=NS), (FIG. 2.) As NO is known to inhibit the NKCC2 sodium transporter in the kidney, NKCC2 activity at day 10 of Ang II was measured by quantitating urine sodium to creatinine ratios (UNa/UCr) 3 hours after an IP injection of saline with or without furosemide. […] Thus, reduced NKCC2 activity in the IL-1 R KOs protects them from Ang 11-induced sodium retention. […]

The subject of another data set is NKCC2. Description: NKCC2 activity: 3-hour urine sodium to creatinine ratio after acute IP furosemide challenge at day 10 of Ang II. The note with it: for urine sodium to creatinine ratio: 3-hour sodium excretion after IP furosemide. In kind it is in vivo, mice. The text has this: Because IL-1 is secreted by macrophages, macrophage infiltration into the kidneys of the experimental animals was examined. After 4 weeks of hypertension, IL-1R KO kidneys contained more F4/80+ macrophages than WTs (18±1 vs. 14±2 per HPF; p=0.03). […] In turn, the KO group had enhanced renal mRNA expression of the NO-generating enzyme iNOS (1.7±0.3 vs. 1.0±0.2 au; p<0.05) and higher excretion of NO metabolites vs. WTs (152±46 vs. 60±15 nmol/mg Cr; p=0.05). NO inhibits renal sodium (Na) reabsorption, and during the 2″d wk of Ang II infusion when WT and KO BPs separated, only the KOs entered negative Na balance (−16.8±16.8 vs. WT 34.8±7.5 1-Jmol/day, p=0.01). To confirm that preserved NO bioavailability in the Ang 11-infused KOs led to their lower BP vs. WTs, we blocked NO generation in the groups with L-NAME starting on day 7 of Ang II when the WT and KO BPs were 179±3 vs. 165±6 mm Hg (p<0.01). By day 14, BPs converged (186±5 vs. 185±8; p=NS), (FIG. 2.) As NO is known to inhibit the NKCC2 sodium transporter in the kidney, NKCC2 activity at day 10 of Ang II was measured by quantitating urine sodium to creatinine ratios (UNa/UCr) 3 hours after an IP injection of saline with or without furosemide. […] Thus, reduced NKCC2 activity in the IL-1 R KOs protects them from Ang 11-induced sodium retention.
Therefore, to examine NKCC2 activity in the groups at day 10 of Ang II when the differences in sodium excretion was noted, 3-hour sodium excretion was quantitated in response to an acute intraperitoneal (IP) furosemide challenge (FIG. 8). In response to IP saline injection alone, the IL-1RKO mice had exaggerated urine sodium to creatinine ratios, consistent with their enhanced natriuresis in original balance study (237±38 vs. 120±9%; p=0.016). […] Without being bound by a particular theory, it is believed that IL-1 receptor activation stimulates renal sodium reabsorption via NKCC2-mediated sodium transport during Ang II-dependent HTN.

The subject of data set [1] is wild-type mice in AngII-dependent hypertension model. The data set is described as follows: Ang II-dependent hypertension model, blood pressure by radiotelemetry. In kind it is in vivo. The protocol: To study the role of IL-1 receptor (IL-1 R) activation in hypertension, uni-nephrectomized IL-1 R-deficient(IL-1R KO) and wild-type (WT) mice was chronically infused with angiotensin II (Ang II; 1000 ng/kg/min) for 4 weeks using an implanted osmotic mini-pump after measurement of baseline blood pressures. Chronic angiotensin II infusion in rodents is a widely accepted model of hypertension that leads to the same complications in rodents as those seen in humans including cardiac hypertrophy and kidney damage. Unilateral nephrectomy renders the remaining kidney more susceptible to injury in this hypertension model. In the experiments of the disclosure baseline mean arterial pressures (MAPs) were similar between groups.
In the present disclosure, Anakinra was administered at 50 mg/kg/day IP to wild-type mice in AngII-dependent hypertension model.
FIG. 3B illustrates the effect of treatment with 50 mg/kg/day IP once daily beginning 3 days prior to and continuing throughout the Ang II infusion period.
Uni-nephrectomized IL-1 R-deficient(IL-1R KO) and wild-type (WT) mice was chronically infused with (1000 ng/kg/min) for 4 weeks using an implanted osmotic mini-pump after measurement of baseline blood pressures. […] Blood pressure was monitored continuously using radiotelemetry.

Data set [2] relates to patients with rheumatic diseases. Particulars: in vivo; cited from earlier work.
In a further data set the test system is Ang II-infused mice. Description: Target organ damage (cardiac hypertrophy, albuminuria) in Ang II-induced hypertension. In kind it is in vivo. The note with it: Ang II-infused mice treated with anakinra. The protocol: For example, the Ang 11-infused IL-1 R KO mice had less cardiac hypertrophy than WJ mice as measured by heart weight/body weight ratios (7.5±0.9 vs. 9.3±0.8 mg/g, p<0.001). Loss of albumin in the urine is a marker for kidney glomerular damage in humans, and Ang 11-infused IL-1 R KO mice had nearly 40% less in albuminuria than Ang 11-infused WT animals (5.90±0.93 vs. 9.38±1.43 mg/mg Cr; p=0.05). […] Thus, the lower blood pressures in IL-1 receptor-deficient mice led to reduced hypertensive damage to the heart and kidney.
Uni-nephrectomized IL-1 R-deficient(IL-1R KO) and wild-type (WT) mice was chronically infused with (1000 ng/kg/min) for 4 weeks using an implanted osmotic mini-pump after measurement of baseline blood pressures. The mice were then treated with vehicle or anakinra (50 mg/kg/day IP) once daily beginning 3 days prior to and continuing throughout the Ang II infusion period (FIG. 3). Blood pressure was monitored continuously using radiotelemetry.
Next, levels of albuminuria, which is a marker for kidney damage, were measured in Ang II-infused IL-1R Kos and wild type mice. It was observed that the levels of albuminuria were reduced by 37% in the IL1R KO mice vs. the wild type: 5899±929 vs. 9380±1423, n=9,10, p=0.052 (37.1% reduction); for 24 hour albuminuria, 3574 vs. 5082, p=0.0810 (30.4% reduction).

`COC(=O)[C@@H](N)CCCNC(=N)N[N+](=O)[O-]` [L-NAME, L-Nitroarginine Methyl Ester]: the results for the “blood pressure following L-NAME treatment” value in the data set on NO generation (IL-1R KO mice) and in the data set with NO generation (WT mice) were 185±8 mm Hg and 186±5 mm Hg, respectively.
Regarding `NS(=O)(=O)c1cc(C(=O)O)c(NCc2ccco2)cc1Cl` [furosemide], the “urine sodium to creatinine ratio” value was found to be 481±103% in the data set with NKCC2 (IL-1R KO mice) and 453±56% in the data set on NKCC2 (WT mice). Moreover, in the data set with NKCC2 (WT mice, 3 hours after IP furosemide), the “urine sodium to creatinine ratio (UNa/UCr)” value was determined as 453±60 mmollmmol.
Take “Anakinra: recombinant, nonglycosylated form of the human interleukin-1 receptor antagonist (IL-1Ra) with an added N-terminal methionine, 153 amino acids”: the “ability to limit blood pressure elevation / protection from hypertension” value in data set [1] (50 mg/kg/day IP once daily, during Ang II infusion (1000 ng/kg/min)) is “as robust as genetic deletion of the receptor; also recorded: as profound as that seen in the IL-1R KO mice”. Further, the “effect on baseline blood pressure” value in data set [1] (50 mg/kg/day IP, before Ang II infusion (Pre)) is recorded as “no impact; also recorded: no effect”. Besides, the “hypotension in clinical trials” value in data set [2] was “lack of hypotension”. Besides, the “decrease in cardiac hypertrophy” value in the data set on Ang II-infused mice (FIG. 9A) was “as profound as that seen in the IL-1R KO mice”. Further, the decrease in albuminuria result in the data set on Ang II-infused mice (FIG. 9B) is on record as “as profound as that seen in the IL-1R KO mice”.
